Consider 13 compounds from BindingDB's records for doi:10.1016/0960-894X(96)00045-5 (1996).

The assay deals with 5-hydroxytryptamine receptor 1A (Rattus norvegicus) (UniProt P19327). Kind of assay: Inhibition of specific [3H]OH-DPAT binding at 5-hydroxytryptamine 1A receptor in rat hippocampal membranes.
5-hydroxytryptamine receptor 1A (Rattus norvegicus), sequence (P19327 whole entry, looked up): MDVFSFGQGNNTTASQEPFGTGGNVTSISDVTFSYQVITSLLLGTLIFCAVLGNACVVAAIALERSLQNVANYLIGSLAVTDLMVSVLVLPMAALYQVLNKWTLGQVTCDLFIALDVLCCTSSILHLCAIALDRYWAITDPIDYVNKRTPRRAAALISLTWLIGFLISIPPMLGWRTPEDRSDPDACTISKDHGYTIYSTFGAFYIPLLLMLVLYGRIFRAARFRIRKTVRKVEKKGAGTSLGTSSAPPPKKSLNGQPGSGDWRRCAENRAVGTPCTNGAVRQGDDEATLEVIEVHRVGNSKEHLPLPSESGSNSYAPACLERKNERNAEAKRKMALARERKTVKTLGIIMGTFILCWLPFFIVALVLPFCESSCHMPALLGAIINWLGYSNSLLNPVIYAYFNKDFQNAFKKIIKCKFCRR
With `CCCN(CCC)[C@H]1C[C@@H]1c1ccccc1OC` [[(1S,2R)-2-(2-Methoxy-phenyl)-cyclopropyl]-dipropyl-amine], the affinity corresponds to a Ki of 17 nM.
The same measure for `CCCN(CCC)C[C@H]1C[C@@H]1c1cccc(O)c1` [3-((1S,2S)-2-Dipropylaminomethyl-cyclopropyl)-phenol]: 186 nM; for `CCCN(CCC)C[C@H]1C[C@@H]1c1ccccc1O` [2-((1S,2S)-2-Dipropylaminomethyl-cyclopropyl)-phenol]: 752 nM.
Turning to `CCN(CC)C[C@H]1C[C@@H]1c1ccccc1O` [2-((1S,2S)-2-Diethylaminomethyl-cyclopropyl)-phenol], the Ki (usually the dissociation constant of the complex between target and ligand, obtained from inhibition or displacement) was 506 nM.
`CCCN(CCC)[C@@H]1C[C@@H]1c1ccccc1OC` [[(1R,2R)-2-(2-Methoxy-phenyl)-cyclopropyl]-dipropyl-amine] displayed an inhibition constant (Ki) greater than 10000 nM.
The result for `CCCN(CCC)[C@@H]1C[C@@H]1c1cccc(OC)c1` [[(1R,2R)-2-(3-Methoxy-phenyl)-cyclopropyl]-dipropyl-amine] reads 736 nM.
The result for `CCCN(CCC)C[C@@H]1C[C@@H]1c1cccc(O)c1` [3-((1S,2R)-2-Dipropylaminomethyl-cyclopropyl)-phenol] reads 58 nM; that for `CCCN(CCC)C[C@H]1C[C@@H]1c1cccc(OC)c1` [[(1S,2S)-2-(3-Methoxy-phenyl)-cyclopropylmethyl]-dipropyl-amine], 310 nM.
The result for `CCCN(CCC)C[C@@H]1C[C@@H]1c1ccccc1OC` [[(1R,2S)-2-(2-Methoxy-phenyl)-cyclopropylmethyl]-dipropyl-amine] reads 998 nM; that for `CCCN(CCC)C[C@@H]1C[C@@H]1c1cccc(OC)c1` [[(1R,2S)-2-(3-Methoxy-phenyl)-cyclopropylmethyl]-dipropyl-amine], 388 nM; that for `CCN(CC)C[C@H]1C[C@@H]1c1ccccc1OC` [Diethyl-[(1S,2S)-2-(2-methoxy-phenyl)-cyclopropylmethyl]-amine], 431 nM.
Compound `CCCN(CCC)C[C@H]1C[C@@H]1c1ccccc1OC` [[(1S,2S)-2-(2-Methoxy-phenyl)-cyclopropylmethyl]-dipropyl-amine] had a Ki of 239 nM.
The same measure for `CCCN(CCC)C[C@@H]1C[C@@H]1c1ccccc1O` [2-((1S,2R)-2-Dipropylaminomethyl-cyclopropyl)-phenol]: 379 nM.
